Our source for the IC50 values is patent US10519177B2, “Heterocyclic compounds and uses thereof” (Plexxikon Inc., priority 2013, dated 2019).

The structures appear in SMILES notation.

In one assay the target is BRD4-BD12 (1-477) (Homo sapiens (Human), UniProt O60885). Description: Alphascreen binding assay BRD4-BD12. Conditions: BRD4(1 2) H4; read-out: Biochemical activity (IC50 μM) BRD4(1 2) H4. In a few lines:
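In this competition format, compounds displace a biotinylated tetra-acetyl H4 peptide from E. coli-expressed human BRD4 bromodomain constructs captured on nickel chelate beads. The reaction runs at pH 7.5 with 2 mM DTT and detergent for 1 h at room temperature before a 30 min bead step.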
(In general: Bead proximity is the source of the signal in Alpha formats.)

Another assay relates to MV-4-11 cells. Description: Oncology cell growth assay MV-4-11 (CellTiter Glo). The settings on record: Homo sapiens, MV4-11, 72 h; MV-4-11, 3d growth; read-out: Cell activity (IC50 μM) MV-4-11 3d-Growth. The assay is classed as cell-based. The method, boiled down:
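Growth read by CellTiter Glo luminescence after 72 h compound treatment of MLL-AF4-bearing MV-4-11 cells (3000/well). Titration: 8 points, 1:3 steps, maximum 10 μM, 0.2% DMSO final. Data normalized to DMSO wells, four-parameter fit gives pIC50.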
Background: In ATP-based viability assays light output follows the ATP content of the culture.

The subject of the next assay is bromodomain. The assay can be described thus: at least one of the bromodomain cell assays of Example 57. It is filed as cell-based. Conditions: at least one of the bromodomain cell assays described in Example 57; read-out: IC50 in at least one of the bromodomain cell assays.

Broadly, the IC50 is the concentration at which inhibition is half-maximal. Consider `CCNS(=O)(=O)c1ccc(-c2cn([C@@H](C)c3ccccn3)c3cc(-c4c(C)noc4C)cnc23)cc1` [P-0556, 4-[6-(3,5-dimethylisoxazol-4-yl)-1-[(1S)-1-(2-pyridyl)ethyl]pyrrolo[3,2-b]pyridin-3-yl]-N-ethyl-benzenesulfonamide], for which the IC50 on BRD4-BD12 (1-477) is less than 1 µM; with MV-4-11 cells it was less than 1 µM; in the assay on bromodomain, less than 10 µM.
With `Cc1noc(C)c1-c1cnc2c(-c3ccc(S(=O)(=O)NC4CC4)cc3)cn([C@@H](C)c3ccccn3)c2c1` [P-0557, N-cyclopropyl-4-[6-(3,5-dimethylisoxazol-4-yl)-1-[(1S)-1-(2-pyridyl)ethyl]pyrrolo[3,2-b]pyridin-3-yl]benzenesulfonamide], the IC50 at BRD4-BD12 (1-477) was less than 1 µM; in the assay with MV-4-11 cells, less than 1 µM; with bromodomain, less than 10 µM.
Consider `Cc1noc(C)c1-c1cnc2c(-c3ccc(CC(=O)O)cc3)cn([C@@H](C)c3ccccn3)c2c1` [P-0558, 2-[4-[6-(3,5-dimethylisoxazol-4-yl)-1-[(1S)-1-(2-pyridyl)ethyl]pyrrolo[3,2-b]pyridin-3-yl]phenyl]acetic acid], for which the IC50 at BRD4-BD12 (1-477) was less than 1 µM; in the assay with MV-4-11 cells it was less than 1 µM; in the assay with bromodomain it was less than 10 µM.
In the case of `COC(=O)c1ccc(-c2cn([C@@H](C)c3ccccc3)c3cc(-c4c(C)noc4C)cnc23)cc1` [P-0559, methyl 4-[6-(3,5-dimethylisoxazol-4-yl)-1-[(1S)-1-phenylethyl]pyrrolo[3,2-b]pyridin-3-yl]benzoate], the IC50 on BRD4-BD12 (1-477) is less than 1 µM; with MV-4-11 cells, less than 1 µM; with bromodomain, less than 10 µM.
As for `Cc1noc(C)c1-c1cnc2c(-c3ccc(C(=O)O)cc3)cn([C@@H](C)c3ccccc3)c2c1` [P-0560, 4-[6-(3,5-dimethylisoxazol-4-yl)-1-[(1S)-1-phenylethyl]pyrrolo[3,2-b]pyridin-3-yl]benzoic acid], the IC50 was less than 1 µM at BRD4-BD12 (1-477), less than 1 µM in the assay with MV-4-11 cells and less than 10 µM in the assay on bromodomain.
For the compound `CNC(=O)Nc1ccc(-c2cn(CC3CCC(F)(F)CC3)c3cc(-c4c(C)noc4C)cnc23)cc1` [P-0561, 1-[4-[1-[(4,4-difluorocyclohexyl)methyl]-6-(3,5-dimethylisoxazol-4-yl)pyrrolo[3,2-b]pyridin-3-yl]phenyl]-3-methyl-urea], the figures for the IC50 at BRD4-BD12 (1-477), in the assay with MV-4-11 cells and with bromodomain were less than 1 µM, less than 1 µM and less than 10 µM, respectively.
Regarding `Cc1noc(C)c1-c1cnc2c(-c3ccc(NC(=O)NC4CC4)cc3)cn(CC3CCC(F)(F)CC3)c2c1` [P-0562, 1-cyclopropyl-3-[4-[1-[(4,4-difluorocyclohexyl)methyl]-6-(3,5-dimethylisoxazol-4-yl)pyrrolo[3,2-b]pyridin-3-yl]phenyl]urea], the IC50 on BRD4-BD12 (1-477) was less than 1 µM; with MV-4-11 cells, less than 1 µM; with bromodomain it was less than 10 µM.
Take `CNC(=O)Nc1ccc(-c2cn([C@@H](C)c3ccccn3)c3cc(-c4c(C)noc4C)cnc23)cc1` [P-0563, 1-[4-[6-(3,5-dimethylisoxazol-4-yl)-1-[(1S)-1-(2-pyridyl)ethyl]pyrrolo[3,2-b]pyridin-3-yl]phenyl]-3-methyl-urea]: the figures for the IC50 on BRD4-BD12 (1-477), in the assay on MV-4-11 cells and in the assay on bromodomain were less than 1 µM, less than 1 µM and less than 10 µM, respectively.
On to `Cc1noc(C)c1-c1cnc2c(-c3ccc(NC(=O)NC4CC4)cc3)cn([C@@H](C)c3ccccn3)c2c1` [P-0564, 1-cyclopropyl-3-[4-[6-(3,5-dimethylisoxazol-4-yl)-1-[(1S)-1-(2-pyridyl)ethyl]pyrrolo[3,2-b]pyridin-3-yl]phenyl]urea], for which the results for the IC50 on BRD4-BD12 (1-477), in the assay on MV-4-11 cells and in the assay with bromodomain were less than 1 µM, less than 1 µM and less than 10 µM, respectively.
Regarding `COC(=O)Cc1ccc(-c2cn([C@@H](C)c3ccccn3)c3cc(-c4c(C)noc4C)cnc23)cc1` [P-0565, methyl 2-[4-[6-(3,5-dimethylisoxazol-4-yl)-1-[(1S)-1-(2-pyridyl)ethyl]pyrrolo[3,2-b]pyridin-3-yl]phenyl]acetate], the IC50 on BRD4-BD12 (1-477) is less than 1 µM; in the assay with MV-4-11 cells, less than 1 µM; in the assay with bromodomain it was less than 10 µM.
Take `Cc1noc(C)c1-c1cnc2c(-c3ccc(C(F)(F)C(=O)O)cc3)cn([C@@H](C)c3ccccn3)c2c1` [P-0566, 2,2-difluoro-2-(4-(6-(3,5-dimethylisoxazol-4-yl)-1-((S)-1-(pyridin-2-yl)ethyl)-1H-pyrrolo[3,2-b]pyridin-3-yl)phenyl)acetic acid]: the figures for the IC50 at BRD4-BD12 (1-477), in the assay with MV-4-11 cells and with bromodomain were less than 1 µM, 1 to 10 µM and less than 10 µM, respectively.
Consider `CC[C@@H](c1ccccc1)n1cc(-c2ccc(C(=O)O)cc2)c2ncc(-c3c(C)noc3C)cc21` [P-0567, 4-[6-(3,5-dimethylisoxazol-4-yl)-1-[(1S)-1-phenylpropyl]pyrrolo[3,2-b]pyridin-3-yl]benzoic acid], for which the IC50 on BRD4-BD12 (1-477) was less than 1 µM; in the assay on MV-4-11 cells it was less than 1 µM; with bromodomain, less than 10 µM.
Take `Cc1noc(C)c1-c1cnc2c(-c3ccc(-c4nnn[nH]4)cc3)cn([C@@H](C)c3ccccn3)c2c1` [P-0568, 3,5-dimethyl-4-[1-[(1S)-1-(2-pyridyl)ethyl]-3-[4-(1H-tetrazol-5-yl)phenyl]pyrrolo[3,2-b]pyridin-6-yl]isoxazole]: the IC50 on BRD4-BD12 (1-477) was less than 1 µM; in the assay on MV-4-11 cells, less than 1 µM; with bromodomain, less than 10 µM.
Turning to `CC[C@H](c1ccccc1)n1cc(-c2ccc(C(=O)OC)cc2)c2ncc(-c3c(C)noc3C)cc21` [P-0569, methyl 4-[6-(3,5-dimethylisoxazol-4-yl)-1-[(1R)-1-phenylpropyl]pyrrolo[3,2-b]pyridin-3-yl]benzoate], the IC50 at BRD4-BD12 (1-477) is less than 1 µM; with MV-4-11 cells, less than 1 µM; in the assay on bromodomain, less than 10 µM.
`CC[C@H](c1ccccc1)n1cc(-c2ccc(C(=O)O)cc2)c2ncc(-c3c(C)noc3C)cc21` [P-0570, 4-[6-(3,5-dimethylisoxazol-4-yl)-1-[(1R)-1-phenylpropyl]pyrrolo[3,2-b]pyridin-3-yl]benzoic acid]: the values for the IC50 on BRD4-BD12 (1-477), in the assay with MV-4-11 cells and in the assay on bromodomain were less than 1 µM, less than 1 µM and less than 10 µM, respectively.
Turning to `[2H]C([2H])(O)c1ccc(-c2cn(CC3CCC(F)(F)CC3)c3cc(-c4c(C)noc4C)cnc23)cc1` [P-0571, dideutrio-[4-[1-[(4,4-difluorocyclohexyl)methyl]-6-(3,5-dimethylisoxazol-4-yl)pyrrolo[3,2-b]pyridin-3-yl]phenyl]methanol], the IC50 is less than 1 µM on BRD4-BD12 (1-477), less than 1 µM with MV-4-11 cells and less than 10 µM in the assay on bromodomain.
For the compound `Cc1noc(C)c1-c1cnc2c(I)cn([C@@H](C)c3ccccn3)c2c1` [P-0572, 4-[3-iodo-1-[(1S)-1-(2-pyridyl)ethyl]pyrrolo[3,2-b]pyridin-6-yl]-3,5-dimethyl-isoxazole], the figures for the IC50 on BRD4-BD12 (1-477), in the assay with MV-4-11 cells and in the assay on bromodomain were less than 1 µM, less than 1 µM and less than 10 µM, respectively.
Consider `Cc1noc(C)c1-c1cnc2c(-c3ccc(C#N)cc3)cn([C@@H](C)c3ccccn3)c2c1` [P-0573, 4-[6-(3,5-dimethylisoxazol-4-yl)-1-[(1S)-1-(2-pyridyl)ethyl]pyrrolo[3,2-b]pyridin-3-yl]benzonitrile], for which the IC50 on BRD4-BD12 (1-477) is less than 1 µM; in the assay with MV-4-11 cells, less than 1 µM; with bromodomain it was less than 10 µM.
As for `COC(=O)c1ccc(-c2cn(C(c3ccccn3)c3ccccn3)c3cc(-c4c(C)noc4C)cnc23)cc1` [P-0574, methyl 4-[1-[bis(2-pyridyl)methyl]-6-(3,5-dimethylisoxazol-4-yl)pyrrolo[3,2-b]pyridin-3-yl]benzoate], the IC50 on BRD4-BD12 (1-477) was less than 1 µM; in the assay on MV-4-11 cells, less than 1 µM; in the assay with bromodomain, less than 10 µM.
On to `Cc1noc(C)c1-c1cnc2c(I)cn(C(c3ccccn3)c3ccccn3)c2c1` [P-0575, 4-[1-[bis(2-pyridyl)methyl]-3-iodo-pyrrolo[3,2-b]pyridin-6-yl]-3,5-dimethyl-isoxazole], for which the IC50 at BRD4-BD12 (1-477) is less than 1 µM; in the assay on MV-4-11 cells, less than 1 µM; with bromodomain, less than 10 µM.
Regarding `Cc1noc(C)c1-c1cnc2c(-c3ccc(C(=O)O)cc3)cn(C(c3ccccn3)c3ccccn3)c2c1` [P-0576, 4-[1-[bis(2-pyridyl)methyl]-6-(3,5-dimethylisoxazol-4-yl)pyrrolo[3,2-b]pyridin-3-yl]benzoic acid], the values for the IC50 on BRD4-BD12 (1-477), in the assay with MV-4-11 cells and with bromodomain were less than 1 µM, less than 1 µM and less than 10 µM, respectively.
As for `Cc1noc(C)c1-c1cnc2c(I)cn(CC3CCCCCCC3)c2c1` [P-0577, 4-[1-(cyclooctylmethyl)-3-iodo-pyrrolo[3,2-b]pyridin-6-yl]-3,5-dimethyl-isoxazole], the IC50 at BRD4-BD12 (1-477) was less than 1 µM; in the assay with MV-4-11 cells, less than 1 µM; with bromodomain it was less than 10 µM.
Take `COC(=O)c1ccc(-c2cn(CC3CCCCCCC3)c3cc(-c4c(C)noc4C)cnc23)cc1` [P-0578, methyl 4-[1-(cyclooctylmethyl)-6-(3,5-dimethylisoxazol-4-yl)pyrrolo[3,2-b]pyridin-3-yl]benzoate]: the IC50 at BRD4-BD12 (1-477) was less than 1 µM; in the assay with MV-4-11 cells, 1 to 10 µM; in the assay with bromodomain it was less than 10 µM.
The matching figures for `Cc1noc(C)c1-c1cnc2c(-c3ccc(C(=O)O)cc3)cn(CC3CCCCCCC3)c2c1` [P-0579, 4-[1-(cyclooctylmethyl)-6-(3,5-dimethylisoxazol-4-yl)pyrrolo[3,2-b]pyridin-3-yl]benzoic acid]: less than 1 µM, less than 1 µM and less than 10 µM.
Turning to `Cc1noc(C)c1-c1cnc2c(I)cn(CC3CCC4(CC3)CC4)c2c1` [P-0580, 4-[3-iodo-1-(spiro[2.5]octan-6-ylmethyl)pyrrolo[3,2-b]pyridin-6-yl]-3,5-dimethyl-isoxazole], the figures for the IC50 on BRD4-BD12 (1-477), in the assay with MV-4-11 cells and with bromodomain were less than 1 µM, less than 1 µM and less than 10 µM, respectively.
